According to patent publication US11447535B2, “GLP-1 analogues” (Sun Pharmaceutical Industries Limited, priority 2018, dated 2022):
Marks after values point to notes of the source that are not given here. Where no end group is shown, it is not given here. Moiety B = not defined here

What was measured:
[1] = system: SD rats; assay: Oral glucose tolerance test (OGTT) in rats; single injection; 1 mg/kg; format: in vivo; set-up: Change in AUC (mg/dL*min): unit not given here; conditions: for % Glucose Reduction (Blood Glucose AUC0-120 min) / Comp/std Liraglutide (ratio of % glucose reduction) / blood glucose lowering effect vs liraglutide / Blood Glucose AUC (mg/dL*min) Mean / Change in AUC (mg/dL*min): OGTT; for % Glucose Reduction (Blood Glucose AUC0-120 min) / Comp/std Liraglutide (ratio of % glucose reduction): 1 mg/Kg dose, after 24 hrs; for blood glucose lowering effect vs liraglutide / Blood Glucose AUC (mg/dL*min) Mean / Change in AUC (mg/dL*min): 1 mg/Kg; for blood glucose lowering effect vs liraglutide: at 24 hrs; for Blood Glucose AUC (mg/dL*min) Mean: Exp. 1; for Change in AUC (mg/dL*min): Exp. 1, vs control group
Description: (§1) Animals were divided into three groups—a normal control group, a test group and a third semaglutide group, with 4 animals in each group. The animals were fasted for 12 hours before initiation of OGTT. To the test group animals, the Compound 1 was injected subcutaneously at 1 mg/kg dose. To the semaglutide group, a dose of 1 mg/kg was injected subcutaneously. After 22 hrs, 166 hrs and 334 hrs of subcutaneous injection of test drug or semaglutide, blood glucose was measured with blood glucose meter (time 0 measurements). All the animals were then given 2 g/kg of glucose solution orally. Blood glucose was measured at 20, 40, 60, 90 and 120 minutes following glucose challenge. Body weight and food intake was recorded. Blood glucose data was analyzed using Two way ANOVA followed by Bonferroni posttests using PRISM (Graph Pad version 5.03). Data of Blood glucose AUC0-120 min, was analyzed using t test.
as §1, with “animals,” for “animals, the”, “1, Compound 13 and Compound 16 were” for “1 was”, “compound” for “drug”

[2] = system: db/db mice (diabetic mouse model); assay: Separate db/db diabetic mouse study, q2d*15 up to day 28, recovery period day 29 to day 45; format: in vivo; conditions: for Blood Glucose AUC (Day 30-37) % Change vs Control / Blood Glucose AUC (Day 30-37) (mg/dL*days) Mean / Blood Glucose AUC (Day 38-45) % Change vs Control / Blood Glucose AUC (Day 38-45) (mg/dL*days) Mean: recovery period
Description: The study was performed in similar manner as above on diabetic mouse model. The animals were divided into three treatment groups—a diabetic control group, a test group and a semaglutide treatment group. The representative compounds of the present disclosure, Compound 1, Compound 13 and Compound 16, were injected subcutaneously at 3.04 or 6.078 nM dose (every alternate day up to day 28 (q2d*15). The same dosage regimen was administered in semaglutide treatment group. Measurements of blood glucose levels and body weight were done daily. % HbA1c, Insulin was measured on Day 0, day 14 and day 29. Cumulative food intake and body weight change was calculated on day 14 and 29. % HbA1c, Insulin data was analyzed by two way ANOVA followed by Bonferroni's posttests using PRISM (Graph Pad version 5.03). Whereas Blood Glucose AUC, Body weight change and Cumulative food intake data was analyzed by one way ANOVA followed by Bonferroni's posttests using PRISM (Graph Pad version 5.03). From day 29 to day 45, animals were kept on recovery period during which no drug treatment was given. Blood Glucose and Body weight was measured during this period. On day 45, Body weight Changes, % HbA1c, Insulin was measured.

[3] = Food intake and body weight recorded in the rat OGTT study; format: in vivo, rats; conditions: 1 mg/Kg; for Body Weight Change (%) Mean / Food Consumption (g) Mean: Exp. 1
Description: as §1
as §1, with “animals,” for “animals, the”, “1, Compound 13 and Compound 16 were” for “1 was”, “compound” for “drug”

[4] = earlier dose 3.04 nM (3.4 nM given for Compound 16)
[5] = recovery study, day 45, earlier dose 3.04 nM
[6] = recovery study, day 45, earlier dose 6.078 nM (6.0788 nM given for Compound 13)

Compound 6: SEQ ID NO: 10, Moiety B; differs from liraglutide in having an additional Leu at 32nd position (HAEGTFTSDVSSYLEGQAAK(Moiety B)EFIAWLVRGRGL-OH; reading uncertain)
% Glucose Reduction (Blood Glucose AUC0-120 min) [1]: 75.8% | Comp/std Liraglutide (ratio of % glucose reduction) [1]: 1.83 | blood glucose lowering effect vs liraglutide [1]: significantly higher than liraglutide

Compound 7: SEQ ID NO: 05, Moiety B; liraglutide with 2nd amino acid Ala replaced with Aib and additional 32nd amino acid Leu (HXXXGTFTSDVSSYLXGQAAXEFXAWLVRGRGXX; (2)..(2) Xaa = Aib; (3)..(3) Xaa = absent.; (4)..(4) Xaa = Glu.; (16)..(16) Xaa = Glu.; (21)..(21) Lys is substituted; (24)..(24) Xaa is Ile.; (33)..(33) Xaa is Leu.; (34)..(34) Xaa is absent.)
% Glucose Reduction (Blood Glucose AUC0-120 min) [1]: 71.9% | Comp/std Liraglutide (ratio of % glucose reduction) [1]: 1.73 | blood glucose lowering effect vs liraglutide [1]: significantly higher than liraglutide

Compound 13: SEQ ID NO: 05, acylated with Moiety C (HXXXGTFTSDVSSYLXGQAAXEFXAWLVRGRGXX; lipidated side chain; (2)..(2) Xaa = Aib; (3)..(3) Xaa = absent.; (4)..(4) Xaa = Glu.; (16)..(16) Xaa = Glu.; (21)..(21) Lys is substituted; (24)..(24) Xaa is Ile.; (33)..(33) Xaa is Leu.; (34)..(34) Xaa is absent.)
Blood Glucose AUC (mg/dL*min) Mean ([1]; 22 hr): 2795.0 mg·min/dL | Change in AUC (mg/dL*min) ([1]; 22 hr): −81.2 | Blood Glucose AUC (mg/dL*min) Mean ([1]; 168 hr): 6950.0 mg·min/dL | Change in AUC (mg/dL*min) ([1]; 168 hr): −59.5 | Blood Glucose AUC (mg/dL*min) Mean ([1]; 336 hr): 11368.0 mg·min/dL | Change in AUC (mg/dL*min) ([1]; 336 hr): −31.6 | reduction in blood glucose AUC ([1]; after 168 hrs of injection, 1 mg/kg): about 60% | Blood Glucose AUC (Day 0-29) % Change Vs Control ([2]; 3.04 nM, q2d*15): −43.86% | Blood Glucose AUC (Day 0-29) (mg/dL*days) Mean ([2]; 3.04 nM, q2d*15): 9515.4*** mg/dL*days | Body Weight Change Day 29, % Change vs Day 0 Mean ([2]; 3.04 nM, q2d*15): 1.2% | Cumulative Food Intake (g) Day 0-29 Mean ([2]; 3.04 nM, q2d*15): 75.2 g | Blood Glucose AUC (Day 0-29) % Change Vs Control ([2]; 6.078 nM, q2d*15): −50.13% | Blood Glucose AUC (Day 0-29) (mg/dL*days) Mean ([2]; 6.078 nM, q2d*15): 8451.7***## mg/dL*days | Body Weight Change Day 29, % Change vs Day 0 Mean ([2]; 6.078 nM, q2d*15): −1.1% | Cumulative Food Intake (g) Day 0-29 Mean ([2]; 6.078 nM, q2d*15): 70.4 g | % HbA1C Mean ([2]; Day 0, 3.04 nM, q2d*15): 7.7% | Insulin (ng/mL) Mean ([2]; Day 0, 3.04 nM, q2d*15): 21.7 ng/mL | % HbA1C Mean ([2]; Day 0, 6.078 nM, q2d*15): 7.83% | Insulin (ng/mL) Mean ([2]; Day 0, 6.078 nM, q2d*15): 26.2 ng/mL | % HbA1C Mean ([2]; Day 14, 3.04 nM, q2d*15): 6.6* % | Insulin (ng/mL) Mean ([2]; Day 14, 3.04 nM, q2d*15): 41.8 ng/mL | % HbA1C Mean ([2]; Day 14, 6.078 nM, q2d*15): 6.00 *** % | Insulin (ng/mL) Mean ([2]; Day 14, 6.078 nM, q2d*15): 61.2*** ng/mL | % HbA1C Mean ([2]; Day 29, 3.04 nM, q2d*15): 6.4 *** % | Insulin (ng/mL) Mean ([2]; Day 29, 3.04 nM, q2d*15): 54.4** ng/mL | % HbA1C Mean ([2]; Day 29, 6.078 nM, q2d*15): 5.64 *** % | Insulin (ng/mL) Mean ([2]; Day 29, 6.078 nM, q2d*15): 59.4*** ng/mL | HbA1c, blood glucose, food consumption and body weight vs control ([2]; about 3 nM and 6 nM dose): significant reduction | Blood Glucose AUC (Day 30-37) % Change vs Control [2, 4]: −27.93% | Blood Glucose AUC (Day 30-37) (mg/dL*days) Mean [2, 4]: 2588.7** mg/dL*days | Blood Glucose AUC (Day 38-45) % Change vs Control [2, 4]: −5.57% | Blood Glucose AUC (Day 38-45) (mg/dL*days) Mean [2, 4]: 3401.0 mg·days/dL | Blood Glucose AUC (Day 30-37) % Change vs Control ([2]; earlier dose 6.078 nM): −19.94% | Blood Glucose AUC (Day 30-37) (mg/dL*days) Mean ([2]; earlier dose 6.078 nM): 2875.7 mg·days/dL | Blood Glucose AUC (Day 38-45) % Change vs Control ([2]; earlier dose 6.078 nM): −6.68% | Blood Glucose AUC (Day 38-45) (mg/dL*days) Mean ([2]; earlier dose 6.078 nM): 3361.0 mg·days/dL | % HbA1C Mean [2, 5]: 7.5% | Delta HbA1C vs. DC [2, 5]: −1.0 | Insulin (ng/mL) Mean [2, 5]: 31.2 ng/mL | % HbA1C Mean [2, 6]: 7.3% | Delta HbA1C vs. DC [2, 6]: −1.2 | Insulin (ng/mL) Mean [2, 6]: 34.3 ng/mL | Body Weight % Change vs Day 45 Mean ([2]; recovery study, earlier dose 3.04 nM): 6.6% | Body Weight % Change vs Day 45 Mean ([2]; recovery study, earlier dose 6.078 nM (6.0788 nM given for Compound 13)): 5.5% | Body Weight Change (%) Mean ([3]; 48 h): −10.2% | Food Consumption (g) Mean ([3]; 48 h): 8.4 g | Body Weight Change (%) Mean ([3]; 154 h): 4.5% | Food Consumption (g) Mean ([3]; 154 h): 62.3 g | Body Weight Change (%) Mean ([3]; 324 h): 8.2% | Food Consumption (g) Mean ([3]; 324 h): 82.44 g | food consumed vs animals administered with semaglutide ([3]; text on Table 8): consumed significantly less food
